IC50 data for 49 compounds are collected here from patent US11780845B2 (Relay Therapeutics, Inc., priority 2019, dated 2023).

For one assay, the target named is FGFR2 (Homo sapiens (Human), UniProt P21802). Nature of the assay: FGFR2 Biochemical Caliper Assay. As for the experimental part:
Compounds of the present invention were also tested in a FGFR2 Biochemical Caliper Assay. Compounds were prepared in 10 mM DMSO solution and serially diluted into 11 concentrations by 3-fold dilution. […] 5 uL of ATP solution (100 uM) was added to start the reaction and the plate was incubated for 90 minutes, then 70 uL of stopping buffer (0.5M EDTA) was added to terminate the reaction. Each well was analyzed using EZ reader.

A further assay has as its system SNU16 cells. The experiment in a line: SNU16 Cancer Cell Line Proliferation Assay. It is filed as cell-based. To be noted: Homo sapiens; SNU-16 cells. The gist of the method:
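Proliferation read-out: CellTiter Glo chemiluminescence after 96 h compound exposure. Test compounds, serially diluted 3-fold over 11 points from a 10 mM DMSO stock, were added to SNU16 cells plated 24 h earlier at 37 degrees.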

FGFR2, sequence (P21802 22-821): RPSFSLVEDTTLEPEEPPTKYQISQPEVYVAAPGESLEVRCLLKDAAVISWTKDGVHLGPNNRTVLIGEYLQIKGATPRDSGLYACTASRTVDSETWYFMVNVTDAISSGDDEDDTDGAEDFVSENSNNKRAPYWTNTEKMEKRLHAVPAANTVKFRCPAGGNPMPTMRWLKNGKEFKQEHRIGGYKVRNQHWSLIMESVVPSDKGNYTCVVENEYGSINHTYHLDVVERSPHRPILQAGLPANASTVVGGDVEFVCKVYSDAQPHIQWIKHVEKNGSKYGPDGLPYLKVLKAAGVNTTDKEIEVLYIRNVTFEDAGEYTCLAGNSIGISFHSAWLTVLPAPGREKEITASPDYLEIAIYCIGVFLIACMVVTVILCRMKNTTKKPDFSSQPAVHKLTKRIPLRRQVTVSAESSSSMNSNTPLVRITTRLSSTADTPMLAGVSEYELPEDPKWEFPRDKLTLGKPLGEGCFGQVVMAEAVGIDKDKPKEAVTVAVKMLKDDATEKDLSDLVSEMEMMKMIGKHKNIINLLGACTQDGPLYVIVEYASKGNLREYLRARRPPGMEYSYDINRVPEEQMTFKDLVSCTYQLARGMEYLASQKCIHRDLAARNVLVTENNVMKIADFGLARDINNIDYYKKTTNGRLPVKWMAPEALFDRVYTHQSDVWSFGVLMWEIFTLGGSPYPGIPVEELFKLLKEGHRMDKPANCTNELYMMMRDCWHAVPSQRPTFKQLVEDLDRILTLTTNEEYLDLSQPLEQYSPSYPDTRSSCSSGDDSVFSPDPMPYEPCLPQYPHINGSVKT

On to `C=C(C)C(=O)Nc1ccc(-c2c(-c3ccc(C(=O)NCC#N)cc3)c3c(N)ncnc3n2C)cc1` [Example 337], for which the IC50 against FGFR2 and in the assay on SNU16 cells was 250 to 1000 nM in each case.
Turning to `C=CC(=O)N1CCC(n2cc(-c3c(-c4ccc(Oc5cccc(C)n5)cc4)c4c(N)ncnc4n3C)cn2)C1` (centres unmarked) [Example 630], the IC50 against FGFR2 is less than 100 nM; with SNU16 cells, no more than 100 nM.
Take `C=C(C)C(=O)Nc1ccc(-c2c(-c3ccc(Oc4cccc(C)n4)cc3)c3c(N)ncnc3n2C)cc1CN(C)C` [Example 380]: the IC50 at FGFR2 lay in the range of 100 to 250 nM; in the assay with SNU16 cells, 250 to 1000 nM.
For `C=C(C)C(=O)Nc1ccc(-c2c(-c3ccc(C(=O)NC4CCCC4OC)cc3)c3c(N)ncnc3n2C)cc1` (centres unmarked) [Example 321], in that order: 100 to 250 nM and 100 to 250 nM.
For `C=C(C)C(=O)Nc1ccc(-c2c(-c3ccc(C(=C)N[C@H]4CCOC4)cc3)c3c(N)ncnc3n2C)cc1` [Example 335], in that order: 250 to 1000 nM and 250 to 1000 nM.
For `C=C(COC)C(=O)Nc1ccc(-c2c(-c3ccc(Oc4cccc(C)n4)cc3)c3c(N)ncnc3n2C)cc1` [Example 401], in that order: less than 100 nM and no more than 100 nM.
For the compound `C=C(C)C(=O)Nc1ccc(-c2c(-c3ccc(C(=O)N4CCC5CC54)cc3)c3c(N)ncnc3n2C)c(F)c1` (centres unmarked) [Example 461], the IC50 is less than 100 nM against FGFR2 and no more than 100 nM in the assay with SNU16 cells.
Regarding `C=C(C)C(=O)Nc1ccc(-c2c(-c3ccc(C(=O)NCC(C)(C)OC)cc3)c3c(N)ncnc3n2C)cc1` [Example 306], the values for the IC50 on FGFR2 and in the assay on SNU16 cells were less than 100 nM and no more than 100 nM, respectively.
As for `C=CC(=O)N1CC=C(c2c(-c3ccc(Oc4ncccn4)cc3)c3c(N)ncnc3n2C)CC1` [Example 680], the IC50 on FGFR2 is less than 100 nM; with SNU16 cells it was no more than 100 nM.
For `C=C(C)C(=O)Nc1ccc(-c2c(-c3ccc(C(=O)N(C)Cc4nnc(C)o4)cc3)c3c(N)ncnc3n2C)cc1` [Example 374], in that order: 1000 to 100000 nM and 250 to 1000 nM.
`C=CC(=O)N1CC=C(c2c(-c3ccc(Oc4ccccn4)cc3)c3c(N)ncnc3n2C)CC1` [Example 681]: the IC50 is less than 100 nM on FGFR2 and no more than 100 nM in the assay on SNU16 cells.
The corresponding values for `C=CC(=O)N1CC=C(c2c(-c3ccc(Oc4cccc(C)n4)c(OC)c3)c3c(N)ncnc3n2C)CC1` [Example 620] are less than 100 nM and no more than 100 nM.
The corresponding values for `C=C(C)C(=O)Nc1ccc(-c2c(-c3ccc(C(=O)N4CCC[C@H]4COC)cc3)c3c(N)ncnc3n2C)cc1` [Example 357] are less than 100 nM and no more than 100 nM.
The corresponding values for `C=CC(=O)N1CCC(c2c(-c3ccc(C4CCC(=O)N4)cc3)c3c(N)ncnc3n2C)C1` (centres unmarked) [Example 762] are 1000 to 100000 nM and 1000 to 100000 nM.
With `C=CC(=O)N1CCC(c2c(-c3ccc(Oc4ncccn4)cc3)c3c(N)ncnc3n2C)CC1` [Example 696], the IC50 at FGFR2 lay in the range of 250 to 1000 nM; in the assay with SNU16 cells, 100 to 250 nM.
`C=CC(=O)N1CCC=C(c2c(-c3ccc(Oc4cccc(C)n4)c(OC)c3)c3c(N)ncnc3n2C)C1` [Example 657]: the IC50 on FGFR2 and with SNU16 cells was 1000 to 100000 nM in each case.
As to `CC#CC(=O)Nc1ccc(-c2c(-c3ccc(C(=O)N4CCCC4)cc3)c3c(N)ncnc3n2C)cc1` [Example 155], the IC50 against FGFR2 is less than 100 nM; with SNU16 cells, no more than 100 nM.
For `C=C(C)C(=O)Nc1ccc(-c2c(-c3ncc(Oc4nccc(C)n4)cc3F)c3c(N)ncnc3n2C)cc1` [Example 572], in that order: less than 100 nM and no more than 100 nM.
The corresponding values for `C=C(C)C(=O)Nc1ccc(-c2c(-c3ccc(Oc4ccnc(C)n4)c(Cl)c3)c3c(N)ncnc3n2C)cc1` [Example 506] are 250 to 1000 nM and 250 to 1000 nM.
On to `C=C(C)C(=O)Nc1c(F)cc(-c2c(-c3ccc(C(=O)N4CCCC4)cc3)c3c(N)ncnc3n2C)cc1F` [Example 210], for which the figures for the IC50 on FGFR2 and with SNU16 cells were 1000 to 100000 nM and 250 to 1000 nM, respectively.
Regarding `C=CC(=O)N1CCC(n2cc(-c3c(-c4ccc(Oc5cnccn5)cc4)c4c(N)ncnc4n3C)cn2)CC1` [Example 642], the IC50 was 250 to 1000 nM at FGFR2 and 100 to 250 nM in the assay on SNU16 cells.
The corresponding values for `C=C(C)C(=O)Nc1ccc(-c2c(-c3ccc(Oc4nccc(CO)n4)c(F)c3)c3c(N)ncnc3n2C)cc1` [Example 498] are less than 100 nM and no more than 100 nM.
The corresponding values for `C=CC(=O)N1CC=C(c2c(-c3ccc(Oc4cccc(C)n4)c(OC)c3)c3c(N)ncnc3n2C)C1` [Example 667] are 100 to 250 nM and 100 to 250 nM.
For `C=C(C)C(=O)Nc1ccc(-c2c(-c3ccc(Oc4nccc(C)n4)c(F)c3)c3c(N)ncnc3n2C)c(COC)c1` [Example 500], in that order: less than 100 nM and no more than 100 nM.
As for `C=CC(=O)Nc1ccc(-c2c(-c3ccc(OC4CCOC4)c(C)c3)c3c(N)ncnc3n2C)cc1` (centres unmarked) [Example 174], the IC50 is less than 100 nM against FGFR2 and no more than 100 nM in the assay with SNU16 cells.
On to `C=C(C)C(=O)Nc1ccc(-c2c(-c3ccc(C(=O)N4CCCC5CC54)cc3)c3c(N)ncnc3n2C)cc1` (centres unmarked) [Example 239], for which the IC50 on FGFR2 is less than 100 nM; with SNU16 cells, no more than 100 nM.
For the compound `C=CC(=O)N1CCC(c2c(-c3ccc(Oc4ncccn4)cc3)c3c(N)ncnc3n2CCN2CCN(C)CC2)C1` (centres unmarked) [Example 738], the IC50 at FGFR2 and in the assay on SNU16 cells was 1000 to 100000 nM throughout.
Turning to `C=C(C)C(=O)Nc1ccc(-c2c(-c3ccc(Oc4nccc(COC)n4)c(F)c3)c3c(N)ncnc3n2C)cc1` [Example 511], the IC50 is less than 100 nM at FGFR2 and no more than 100 nM with SNU16 cells.
For `C=Cc1ccc(-c2c(-c3ccc(Oc4nccc(C)n4)cc3)c3c(N)ncnc3n2C)cn1` [Example 598], in that order: 100 to 250 nM and 250 to 1000 nM.
For `C[C@@H](Cl)C(=O)Nc1ccc(-c2c(-c3ccc(C(=O)N4CCCC4)cc3)c3c(N)ncnc3n2C)cc1` (single isomer, unassigned) [Example 559], in that order: 250 to 1000 nM and 250 to 1000 nM.
In the case of `C=C(C)C(=O)Nc1ccc(-c2c(-c3ccc(Oc4cccc(C)n4)cc3)c3c(N)ncnc3n2C)nc1` [Example 533], the IC50 against FGFR2 was less than 100 nM; in the assay with SNU16 cells it was no more than 100 nM.
As to `C=C(C)C(=O)Nc1ccc(-c2c(-c3ccc(C(=O)NCC(C)C)cc3)c3c(N)ncnc3n2C)cc1` [Example 307], the results for the IC50 against FGFR2 and in the assay on SNU16 cells were less than 100 nM and no more than 100 nM, respectively.
Take `C=C(C)C(=O)Nc1ccc(-c2c(-c3ccc(C(=O)N4CCCC4)cc3C#N)c3c(N)ncnc3n2C)cc1` [Example 563]: the IC50 on FGFR2 lay within 1000 to 100000 nM; in the assay on SNU16 cells, 250 to 1000 nM.
`C=C(C)C(=O)Nc1ccc(-c2c(-c3ccc(NC(=O)C4CCCC4)cc3)c3c(N)ncnc3n2C)cc1` [Example 224]: the IC50 is less than 100 nM against FGFR2 and no more than 100 nM in the assay on SNU16 cells.
Turning to `C=C(C)C(=O)Nc1ccc(-c2c(-c3ccc(Oc4cccc(C)n4)cc3)c3c(N)ncnc3n2C)cc1F` [Example 340], the figures for the IC50 against FGFR2 and with SNU16 cells were less than 100 nM and no more than 100 nM, respectively.
The corresponding values for `C=CC(=O)N1CCC(n2cc(-c3c(-c4ccc(Oc5cccc(C)n5)cc4)c4c(N)ncnc4n3C)cn2)CC1` [Example 608] are less than 100 nM and no more than 100 nM.
The corresponding values for `C=C(C)C(=O)Nc1ccc(-c2c(-c3ccc(Oc4nccc(OC)n4)c(F)c3)c3c(N)ncnc3n2C)cc1` [Example 507] are less than 100 nM and no more than 100 nM.
For `C=C(C)C(=O)Nc1ccc(-c2c(-c3ccc(C(=O)Nc4ncon4)cc3)c3c(N)ncnc3n2C)cc1` [Example 295], in that order: 1000 to 100000 nM and 250 to 1000 nM.
As for `C=CC(=O)Nc1ccc(-c2c(-c3ccc(Oc4ccc(Cl)c(C)n4)cc3)c3c(N)ncnc3n2C)cc1` [Example 123], the IC50 was less than 100 nM on FGFR2 and no more than 100 nM in the assay with SNU16 cells.
On to `C=C(C)C(=O)Nc1ccc(-c2c(-c3ccc(C(=O)N4CC5CC4C5)cc3)c3c(N)ncnc3n2C)cc1` [Example 272], for which the IC50 at FGFR2 was less than 100 nM; in the assay with SNU16 cells it was no more than 100 nM.
In the case of `C=C(C)C(=O)Nc1ccc(-c2c(-c3ccc(Oc4cccc(OC)n4)cc3)c3c(N)ncnc3n2C)cc1` [Example 342], the half-inhibitory concentration (IC50) at FGFR2 was less than 100 nM; in the assay with SNU16 cells it was no more than 100 nM.
The corresponding values for `Cc1cccc(Oc2ccc(-c3c(-c4cnn(C5CCN(C(=O)/C=C/CN6CCOCC6)CC5)c4)n(C)c4ncnc(N)c34)cc2)n1` [Example 646] are 100 to 250 nM and 100 to 250 nM.
As to `C=C(C)C(=O)Nc1ccc(-c2c(-c3ccc(Oc4nccc(Cl)n4)c(F)c3)c3c(N)ncnc3n2C)cc1` [Example 530], the IC50 against FGFR2 is less than 100 nM; with SNU16 cells it was no more than 100 nM.
For `C=C(C)C(=O)Nc1ccc(-c2c(-c3ccc(C(=O)N[C@@H](COC)C4CC4)cc3)c3c(N)ncnc3n2C)cc1` [Example 346], the IC50 at FGFR2 is less than 100 nM; in the assay on SNU16 cells it was no more than 100 nM.
For `C=CC(=O)N1CC=C(c2c(-c3ccc(Oc4ccccn4)c(OC)c3)c3c(N)ncnc3n2C)CC1` [Example 676], in that order: less than 100 nM and no more than 100 nM.
For `C=C(C)C(=O)Nc1ccc(-c2c(-c3ccc(C(=O)NCC(O)C(F)(F)F)cc3)c3c(N)ncnc3n2C)cc1` (centres unmarked) [Example 332], in that order: less than 100 nM and 250 to 1000 nM.
For `C=C(C)C(=O)N1CC=C(c2c(-c3ccc(Oc4ncccn4)cc3)c3c(N)ncnc3n2C)C1` [Example 688], in that order: 1000 to 100000 nM and 1000 to 100000 nM.
As to `C=C(C)C(=O)Nc1ccc(-c2c(-c3ccc(Oc4cccc(C)n4)cn3)c3c(N)ncnc3n2C)cc1` [Example 460], the results for the IC50 at FGFR2 and with SNU16 cells were less than 100 nM and no more than 100 nM, respectively.
The corresponding values for `C=C(C)C(=O)Nc1ccc(-c2c(-c3ccc(C(=O)N4CC(C)C4)cc3)c3c(N)ncnc3n2C)cc1` [Example 135] are 250 to 1000 nM and 100 to 250 nM.

Usually IC50 stands for the point on the concentration scale where inhibition reaches its midpoint.
